SMILES strings stand for the structures.

This series is described as follows: Survival of beagle dogs during the dCF bioavailability study. The series is classed as in vivo. The conditions noted are these: four female beagle dogs, 0.25 mg/kg IV or 1.25-5.0 mg/kg PO for 2 days. The text has this: Four female beagle dogs were assigned to this study.

As to `OC[C@H]1O[C@@H](n2cnc3c2NC=NC[C@H]3O)C[C@@H]1O` [dCF, 2'-deoxycoformycin], the “mortality during the course of the study” value is given as “None of the dogs died”.
